{
  "source": "ChEMBL document CHEMBL1201862",
  "about": "“PubChem BioAssay data set” (2004)",
  "key": {"[1]": {"experiment": "inhibitors of HIV Env-driven cell fusion, dose response, cherry-pick (AID 652057)", "format": "functional, cell-based"}, "[2]": {"experiment": "off-target signal loss in HeLa-CEM21 co-culture – HeLa F-luc CTL cells, cherry-picked, counter-screen for HIV-1 Env fusion inhibitor project, dose response (AID 652040);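 further: potency for signal decrease marking cytotoxic or nonspecific inhibition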", "format": "functional, cell-based"}, "[3]": {"experiment": "inhibitors of clade B AD8 Env fusion, dose response, cell-based, cherry-pick (AID 652062);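 further: potency is for inhibitors of fusion seen as a drop in luminescence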", "format": "functional"}, "[4]": {"experiment": "ZM109 Env clade C HIV-1 fusion inhibitors, dose response, HeLa effector, CEM target cells, luciferase, cherry-pick (AID 652058)", "format": "functional, cell-based"}, "Coagulation factor XII": {"target": "T1, Coagulation factor XII (Homo sapiens, UniProt P00748)", "T1 sequence (P00748 whole entry)": "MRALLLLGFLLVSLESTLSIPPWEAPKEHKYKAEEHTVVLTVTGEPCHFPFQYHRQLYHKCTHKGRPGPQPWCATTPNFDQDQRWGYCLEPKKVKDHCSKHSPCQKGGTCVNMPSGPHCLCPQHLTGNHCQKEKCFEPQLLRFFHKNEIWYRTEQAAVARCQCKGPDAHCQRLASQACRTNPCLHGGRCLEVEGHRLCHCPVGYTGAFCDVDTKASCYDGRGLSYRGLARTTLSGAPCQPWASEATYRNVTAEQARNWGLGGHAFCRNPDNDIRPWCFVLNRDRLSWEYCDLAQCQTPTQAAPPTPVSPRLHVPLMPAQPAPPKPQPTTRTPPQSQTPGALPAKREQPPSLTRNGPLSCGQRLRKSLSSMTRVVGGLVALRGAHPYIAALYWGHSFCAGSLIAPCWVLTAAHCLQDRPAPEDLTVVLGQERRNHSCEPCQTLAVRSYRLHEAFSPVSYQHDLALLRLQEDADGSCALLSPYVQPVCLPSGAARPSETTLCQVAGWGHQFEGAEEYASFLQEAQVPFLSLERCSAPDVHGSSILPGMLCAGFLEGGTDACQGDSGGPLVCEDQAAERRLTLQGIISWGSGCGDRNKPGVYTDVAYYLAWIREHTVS", "format": "functional"}, "[5]": {"target": "T2, Type-1 angiotensin II receptor (Homo sapiens, UniProt P30556)", "T2 sequence (P30556 whole entry)": "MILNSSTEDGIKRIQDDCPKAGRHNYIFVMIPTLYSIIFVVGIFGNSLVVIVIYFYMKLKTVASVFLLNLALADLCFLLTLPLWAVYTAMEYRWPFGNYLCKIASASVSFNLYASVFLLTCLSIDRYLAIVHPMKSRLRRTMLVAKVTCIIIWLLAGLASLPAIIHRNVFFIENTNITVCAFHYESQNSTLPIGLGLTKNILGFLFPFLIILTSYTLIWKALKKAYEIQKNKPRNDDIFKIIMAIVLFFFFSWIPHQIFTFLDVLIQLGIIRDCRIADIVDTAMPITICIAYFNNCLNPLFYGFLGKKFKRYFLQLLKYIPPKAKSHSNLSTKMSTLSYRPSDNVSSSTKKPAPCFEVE", "experiment": "AT1 receptor antagonists, dose response, selectivity assay for APJ receptor antagonist project, cell-based, uHTS hits (AID 463214);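 further: antagonist potency against angiotensin II stimulated AT1 response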", "format": "functional"}, "Beta-galactosidase [6]": {"target": "T3, Beta-galactosidase (Escherichia coli, UniProt Q8VNN2)", "T3 sequence (Q8VNN2 whole entry)": "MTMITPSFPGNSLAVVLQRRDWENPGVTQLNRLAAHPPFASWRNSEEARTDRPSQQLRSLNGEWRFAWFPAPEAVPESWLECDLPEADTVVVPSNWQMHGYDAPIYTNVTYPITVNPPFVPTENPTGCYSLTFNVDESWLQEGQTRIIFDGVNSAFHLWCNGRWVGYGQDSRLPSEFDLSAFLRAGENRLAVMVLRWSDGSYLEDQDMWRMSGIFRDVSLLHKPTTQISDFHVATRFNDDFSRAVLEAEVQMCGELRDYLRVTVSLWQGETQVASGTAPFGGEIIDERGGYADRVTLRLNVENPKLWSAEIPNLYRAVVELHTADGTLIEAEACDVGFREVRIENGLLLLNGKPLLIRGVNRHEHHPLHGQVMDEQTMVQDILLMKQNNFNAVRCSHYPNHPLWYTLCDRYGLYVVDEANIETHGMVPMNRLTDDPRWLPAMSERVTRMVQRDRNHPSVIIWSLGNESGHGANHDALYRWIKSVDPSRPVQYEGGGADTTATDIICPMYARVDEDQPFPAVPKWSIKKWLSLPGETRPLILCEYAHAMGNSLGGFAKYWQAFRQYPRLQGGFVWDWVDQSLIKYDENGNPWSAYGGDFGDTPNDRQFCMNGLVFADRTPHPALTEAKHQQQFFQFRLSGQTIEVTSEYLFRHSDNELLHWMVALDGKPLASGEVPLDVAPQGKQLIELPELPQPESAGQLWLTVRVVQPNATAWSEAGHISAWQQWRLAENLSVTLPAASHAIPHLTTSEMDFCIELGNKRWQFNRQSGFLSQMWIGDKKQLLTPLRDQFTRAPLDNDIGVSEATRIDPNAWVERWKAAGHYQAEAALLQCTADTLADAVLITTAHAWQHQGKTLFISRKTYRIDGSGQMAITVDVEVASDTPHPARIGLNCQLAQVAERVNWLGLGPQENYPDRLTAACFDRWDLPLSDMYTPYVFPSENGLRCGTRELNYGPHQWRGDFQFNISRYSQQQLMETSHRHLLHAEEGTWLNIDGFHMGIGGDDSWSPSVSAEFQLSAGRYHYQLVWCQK", "experiment": "PubChem AID 485352", "format": "functional"}, "[7]": {"experiment": "C. albicans growth with fluconazole, confirmation, fluorescence, retest (AID 2467)", "format": "functional, cell-based"}, "[8]": {"target": "T4, Polyadenylate-binding protein 1 (Homo sapiens, UniProt P11940)", "T4 sequence (P11940 whole entry)": "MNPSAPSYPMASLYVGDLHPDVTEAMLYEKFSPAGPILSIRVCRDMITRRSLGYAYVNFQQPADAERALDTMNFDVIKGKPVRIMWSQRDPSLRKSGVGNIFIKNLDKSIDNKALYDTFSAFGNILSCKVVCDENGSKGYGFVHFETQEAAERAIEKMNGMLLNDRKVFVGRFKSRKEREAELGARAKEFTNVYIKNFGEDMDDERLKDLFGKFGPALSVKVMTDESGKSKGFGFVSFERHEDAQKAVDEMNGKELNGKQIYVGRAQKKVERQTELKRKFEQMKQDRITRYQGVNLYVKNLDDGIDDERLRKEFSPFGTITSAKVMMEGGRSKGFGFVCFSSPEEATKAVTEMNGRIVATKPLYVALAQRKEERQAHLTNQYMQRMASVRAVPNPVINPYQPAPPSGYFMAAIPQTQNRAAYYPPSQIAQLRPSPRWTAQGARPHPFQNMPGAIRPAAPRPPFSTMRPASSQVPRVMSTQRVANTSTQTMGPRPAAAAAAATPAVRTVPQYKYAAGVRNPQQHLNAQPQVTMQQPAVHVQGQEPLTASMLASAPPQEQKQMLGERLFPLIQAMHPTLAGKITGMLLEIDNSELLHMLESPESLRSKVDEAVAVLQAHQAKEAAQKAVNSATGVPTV", "experiment": "PABP1 MLLE–PAM2 binding inhibitor potency, dose response, biochemical, fluorescence polarization, FITC-PAM2 peptide (AID 602259)", "format": "functional", "conditions": "read-out: IC50_Mean"}, "[9]": {"target": "T4, Polyadenylate-binding protein 1", "experiment": "PABP1 MLLE–PAM2 interaction inhibitors, dose response, miRNA deadenylation inhibitor project, biochemical, fluorescence polarization, Cy5-PAM2 peptide, secondary (AID 602260)", "format": "functional", "conditions": "read-out: IC50_Mean"}, "[10]": {"experiment": "NIH-3T3 fibroblast cytotoxicity, dose response, cytotoxicity control, cell-based, fluorescence, Alamar Blue, secondary assay (AID 2327);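 further: NIH-3T3 mouse fibroblasts cultured with fluconazole at 8 µg/mL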", "format": "functional"}, "[11]": {"target": "T5, Histone-lysine N-methyltransferase NSD2 (Homo sapiens, UniProt O96028)", "T5 sequence (O96028 whole entry)": "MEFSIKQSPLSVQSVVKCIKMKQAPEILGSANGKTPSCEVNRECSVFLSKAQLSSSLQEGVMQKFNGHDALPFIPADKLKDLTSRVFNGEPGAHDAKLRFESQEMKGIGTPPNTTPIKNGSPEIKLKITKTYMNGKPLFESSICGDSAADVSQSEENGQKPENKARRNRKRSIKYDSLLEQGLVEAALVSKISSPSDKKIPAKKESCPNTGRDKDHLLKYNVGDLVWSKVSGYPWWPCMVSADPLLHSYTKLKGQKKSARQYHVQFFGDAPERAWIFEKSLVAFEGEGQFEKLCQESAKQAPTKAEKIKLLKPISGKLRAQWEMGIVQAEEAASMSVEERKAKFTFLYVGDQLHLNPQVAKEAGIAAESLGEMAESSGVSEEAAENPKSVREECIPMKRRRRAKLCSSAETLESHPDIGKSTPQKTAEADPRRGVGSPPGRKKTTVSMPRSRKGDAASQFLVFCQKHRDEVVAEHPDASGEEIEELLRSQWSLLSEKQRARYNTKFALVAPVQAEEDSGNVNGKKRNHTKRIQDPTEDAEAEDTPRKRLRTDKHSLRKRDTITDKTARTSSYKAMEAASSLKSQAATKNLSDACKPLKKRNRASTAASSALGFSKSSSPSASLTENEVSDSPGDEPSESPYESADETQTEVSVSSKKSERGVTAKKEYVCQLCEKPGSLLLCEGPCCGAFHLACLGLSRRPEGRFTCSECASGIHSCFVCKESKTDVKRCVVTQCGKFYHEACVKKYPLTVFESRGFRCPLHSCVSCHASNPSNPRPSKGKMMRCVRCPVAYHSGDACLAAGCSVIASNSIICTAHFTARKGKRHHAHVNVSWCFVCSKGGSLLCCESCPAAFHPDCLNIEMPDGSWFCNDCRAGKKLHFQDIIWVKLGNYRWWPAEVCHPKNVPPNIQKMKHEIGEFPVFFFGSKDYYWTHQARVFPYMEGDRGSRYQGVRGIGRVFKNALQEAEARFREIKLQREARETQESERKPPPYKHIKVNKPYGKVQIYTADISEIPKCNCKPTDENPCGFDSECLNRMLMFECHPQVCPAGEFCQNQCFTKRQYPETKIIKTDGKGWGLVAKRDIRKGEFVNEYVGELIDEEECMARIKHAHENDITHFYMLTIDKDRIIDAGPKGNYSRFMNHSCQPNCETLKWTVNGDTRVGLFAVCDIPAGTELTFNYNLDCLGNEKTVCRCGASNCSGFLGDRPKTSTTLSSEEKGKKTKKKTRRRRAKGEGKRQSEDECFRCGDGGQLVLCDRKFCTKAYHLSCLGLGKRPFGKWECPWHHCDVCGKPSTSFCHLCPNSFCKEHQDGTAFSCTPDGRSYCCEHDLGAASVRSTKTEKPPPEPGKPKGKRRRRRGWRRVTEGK", "format": "biochemical"}, "Beta-galactosidase [12]": {"target": "T3, Beta-galactosidase", "experiment": "Dose response counterscreen for EBI2 assay utilizing the enzyme, b-galactosidase.", "format": "functional"}, "[13]": {"tested_on": "Streptococcus sp. 'group A'", "experiment": "growth inhibition of control SK(-) GAS strain, dose response, counter-screen for streptokinase expression inhibitor project, luminescence, kanamycin, BacTiterGlo, confirmation (AID 1900)", "format": "functional, organism-based"}, "Streptokinase A": {"target": "T6, Streptokinase A (Streptococcus pyogenes serotype M1, UniProt P10520)", "T6 sequence (P10520 whole entry)": "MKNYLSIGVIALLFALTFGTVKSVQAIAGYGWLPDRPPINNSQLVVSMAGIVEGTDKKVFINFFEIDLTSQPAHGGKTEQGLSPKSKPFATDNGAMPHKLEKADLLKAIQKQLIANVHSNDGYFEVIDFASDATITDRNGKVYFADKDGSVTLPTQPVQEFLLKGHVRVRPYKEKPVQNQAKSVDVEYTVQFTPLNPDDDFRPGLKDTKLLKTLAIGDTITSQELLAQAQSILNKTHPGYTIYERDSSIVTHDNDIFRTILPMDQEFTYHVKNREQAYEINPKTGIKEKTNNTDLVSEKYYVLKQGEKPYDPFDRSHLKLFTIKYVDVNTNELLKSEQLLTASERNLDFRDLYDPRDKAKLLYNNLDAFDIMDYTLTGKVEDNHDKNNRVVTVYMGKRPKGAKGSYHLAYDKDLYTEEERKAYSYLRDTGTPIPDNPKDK", "experiment": "S. pyogenes streptokinase expression inhibitors, potency, dose response, plasminogen activation absorbance, OD405 (AID 1914);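 further: secreted streptokinase activity via plasminogen activation per viability signal from cell pellet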", "format": "functional, Streptococcus pyogenes M1 GAS"}, "Streptococcus": {"tested_on": "Streptococcus", "experiment": "Group A Streptococcus viability loss, dose response, counter-screen for streptokinase expression inhibitor project, luminescence, BacTiterGlo (AID 1915);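 further: potency for reduction of bacterial viability or growth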", "format": "functional, organism-based"}},
  "note": "Active and inactive are the calls of the source.",
  "data": [
    {"compound": "CCOc1ccc(OCc2cccc(C(=O)N3CCOCC3)c2)cc1", "values": [
      {"measurement": "AC50", "setting": "[1]", "value": "2.64 µM (active)"},
      {"measurement": "AC50", "setting": "[2]", "value": "5.29 µM (active)"},
      {"measurement": "AC50", "setting": "[3]", "value": "7.58 µM (active)"},
      {"measurement": "AC50", "setting": "[4]", "value": "22 µM (active)"}
    ]},
    {"compound": "CCOC(=O)c1c(O)c2cc(Cl)ccc2n(CC)c1=O", "values": [
      {"measurement": "IC50", "setting": "Coagulation factor XII", "value": "> 50 µM (inactive)"}
    ]},
    {"compound": "Cc1ccc2c(c1)nnn2C1CCN(CC(=O)NCCc2nc3ccccc3[nH]2)CC1", "values": [
      {"measurement": "IC50", "setting": "[5]", "value": "> 40 µM (not active)"},
      {"measurement": "EC50", "setting": "Beta-galactosidase [6]", "value": "> 40 µM (inactive)"}
    ]},
    {"compound": "O=[N+]([O-])c1cccc(/C=N/NS(=O)(=O)c2ccccc2)c1", "values": [
      {"measurement": "IC50", "setting": "[5]", "value": "24.3 µM (not active)"},
      {"measurement": "EC50", "setting": "Beta-galactosidase [6]", "value": "> 40 µM (inactive)"}
    ]},
    {"compound": "C[C@@H]1CNC(=O)c2c(C(=O)N3CCN(c4ccccc4)CC3)ncn21", "values": [
      {"measurement": "AC50", "setting": "[1]", "value": "7.81 µM (active)"},
      {"measurement": "AC50", "setting": "[2]", "value": "10.4 µM (active)"},
      {"measurement": "AC50", "setting": "[3]", "value": "19.7 µM (active)"},
      {"measurement": "AC50", "setting": "[4]", "value": "14.8 µM (active)"}
    ]},
    {"compound": "O=C(NNc1ccc(Cl)cc1)c1sccc1Cl", "values": [
      {"measurement": "EC50", "setting": "[7]", "value": "2.04 µM (active)"},
      {"measurement": "IC50", "setting": "[8]", "value": "> 66 µM (inactive)"},
      {"measurement": "IC50", "setting": "[9]", "value": "> 66 µM (inactive)"},
      {"measurement": "EC50", "setting": "[10]", "value": "3.77 µM (active)"},
      {"measurement": "IC50", "setting": "[5]", "value": "12.4 µM (active)"},
      {"measurement": "EC50", "setting": "Beta-galactosidase [6]", "value": "> 40 µM (inactive)"}
    ]},
    {"compound": "CCN1C(=O)/C(=C\\c2ccco2)C(C(=O)OC)=C1C", "values": [
      {"measurement": "IC50", "setting": "Coagulation factor XII", "value": "> 50 µM (inactive)"}
    ]},
    {"compound": "CCOC(=O)C(C(=O)NCc1cccc(OC)c1)c1ncc(C(F)(F)F)cc1Cl", "note": "(stereo not drawn)", "values": [
      {"measurement": "IC50", "setting": "Coagulation factor XII", "value": "> 50 µM (inactive)"}
    ]},
    {"compound": "Cc1cc2ccccn2c1C(=S)NC(=O)c1ccccc1", "values": [
      {"measurement": "AC50", "setting": "[11]", "value": "> 20 µM (inactive)"}
    ]},
    {"compound": "O=C(/C=C/c1ccc([N+](=O)[O-])cc1)N1CCN(S(=O)(=O)c2ccccc2)CC1", "values": [
      {"measurement": "IC50", "setting": "Beta-galactosidase [12]", "value": "> 80 µM (inactive)"}
    ]},
    {"compound": "COc1cccc(NC(=O)Nc2cccnc2)c1", "values": [
      {"measurement": "IC50", "setting": "Coagulation factor XII", "value": "> 50 µM (inactive)"}
    ]},
    {"compound": "Cc1ccc(Cn2cc(/C=N/NC(=O)Cc3nnc(NC(=O)c4ccc(C)cc4)s3)c3ccccc32)cc1", "values": [
      {"measurement": "EC50", "setting": "[13]", "value": "2.5 µM (active)"},
      {"measurement": "EC50", "setting": "Streptokinase A", "value": "> 150 µM (not active)"},
      {"measurement": "IC50", "setting": "Coagulation factor XII", "value": "> 50 µM (inactive)"},
      {"measurement": "EC50", "setting": "Streptococcus", "value": "36.9 µM (active)"}
    ]}
  ]
}
